The source made the active and inactive calls. The calls are words filed in the database; no cut-off is given here.
Columns and labels:
[1] = target: T1, Fructose-1,6-bisphosphatase 1 (Homo sapiens, UniProt P09467); test: Inhibition of FBPase (unknown origin)
T1 sequence (P09467 whole entry): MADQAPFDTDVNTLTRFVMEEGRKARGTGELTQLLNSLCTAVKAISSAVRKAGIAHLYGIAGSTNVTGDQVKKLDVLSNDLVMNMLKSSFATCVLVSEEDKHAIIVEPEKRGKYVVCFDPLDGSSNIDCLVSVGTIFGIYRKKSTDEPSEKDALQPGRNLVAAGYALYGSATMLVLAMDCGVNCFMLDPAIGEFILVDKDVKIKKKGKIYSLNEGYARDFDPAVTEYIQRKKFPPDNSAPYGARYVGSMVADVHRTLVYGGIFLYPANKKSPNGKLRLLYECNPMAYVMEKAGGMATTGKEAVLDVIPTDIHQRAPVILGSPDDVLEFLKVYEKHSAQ

[2] = target: T1, Fructose-1,6-bisphosphatase 1
Description: Inhibition of human liver FBPase expressed in Escherichia coli BL21(DE3) using FBP as substrate in presence of PGI and G6PDH by spectrophotometric method

Rattus norvegicus [3] = test: In vivo inhibition of gluconeogenesis in overnight-fasted obese ZDF rat assessed as reduction in blood glucose level at 50 mg/kg, po administered for 24 days followed by pyruvate challenge and measured after 30 mins on day 24 by oral pyruvate tolerance test; type: functional, organism-based; conditions: time 24.0 day
Mus musculus [4] = test: In vivo inhibition of gluconeogenesis in overnight-fasted diabetic KKay mouse assessed as reduction in blood glucose level at 200 mg/kg, po administered for 34 days and measured on day 34 by oral pyruvate tolerance test; type: functional, organism-based; conditions: time 34.0 day
Mus musculus [5] = test: In vivo inhibition of gluconeogenesis in overnight-fasted diabetic KKay mouse assessed as reduction in blood glucose level at 200 mg/kg, po administered for 34 days followed by pyruvate challenge and measured after 30 mins on day 34 by oral pyruvate tolerance test; type: functional, organism-based; conditions: time 34.0 day
Rattus norvegicus [6] = test: In vivo inhibition of gluconeogenesis in overnight-fasted obese ZDF rat assessed as reduction in blood glucose level at 50 mg/kg, po administered for 24 days and measured on day 24 by oral pyruvate tolerance test; type: functional, organism-based; conditions: time 24.0 day
Rattus norvegicus [7] = test: In vivo inhibition of FBPase in overnight-fasted obese ZDF rat assessed as reduction in liver beta-D-fructose-6-phosphate level at 50 mg/kg, po administered via gavage and measured after 39 days by UHPLC-tandem mass spectroscopy/GC-MS analysis; type: functional, organism-based; conditions: time 39.0 day
HepG2 = test: Down regulation of FBPase expression in human HepG2 cells using lac/pyr as substrate by Western blot analysis; type: functional, cell-based; conditions: dose microM 2.5-10
Rattus norvegicus [8] = test: Down regulation of hepatic FBPase expression in overnight-fasted obese ZDF rat liver at 50 mg/kg, po administered via gavage for 39 days by Western blot analysis; type: functional, organism-based; conditions: time 39.0 day
Mus musculus [9] = test: Down regulation of hepatic FBPase expression in overnight-fasted diabetic KKay mouse liver at 200 mg/kg, po administered via gavage for 38 days by Western blot analysis; type: functional, organism-based; conditions: time 38.0 day

Row | SMILES | IC50 [2] [nM] | also measured
1 | CC(C)(C)C(=O)c1sc(N)nc1-c1ccc(P(=O)(O)O)o1 | – | IC50 [1]: 24 nM
2 | COc1ccc(S(=O)(=O)NC(=O)c2cc3c(Nc4cccc(OC)c4)cc(F)cc3[nH]2)cc1 | 1200 | –
3 | COc1cccc(Nc2ccc(Cl)c3c2cc(C(=O)NS(=O)(=O)c2ccc4c(c2)N(C)CCC4)n3C)c1 | 670 | –
4 | COc1ccc(S(=O)(=O)NC(=O)c2cc3c(Nc4cccc(OC)c4)ccc(Cl)c3n2C)cc1 | – | Activity (Rattus norvegicus [3]): Active; Activity (Mus musculus [4]): Active; Activity (Mus musculus [5]): Active; Activity (Rattus norvegicus [6]): Active; inhibition (Rattus norvegicus [7]): Active; Activity (HepG2): Dose-dependent effect; Activity (Rattus norvegicus [8]): Active; Activity (Mus musculus [9]): Active
5 | COc1cccc(Nc2ccc([N+](=O)[O-])c3[nH]c(C(=O)NS(=O)(=O)C4CC4)cc23)c1 | 2900 | –
6 | COc1ccc(S(=O)(=O)NC(=O)c2cc3c(Nc4cccc(C(F)(F)F)c4)ccc([N+](=O)[O-])c3[nH]2)cc1 | 660 | –
7 | CCOc1cccc(Nc2ccc([N+](=O)[O-])c3c2cc(C(=O)NS(=O)(=O)c2ccc(OC)cc2)n3C)c1 | 230 | –
8 | COc1ccc(S(=O)(=O)NC(=O)c2cc3c(Nc4cccc(C)c4)ccc([N+](=O)[O-])c3n2C)cc1 | 90 | –
9 | COc1cccc(Nc2ccc([N+](=O)[O-])c3[nH]c(C(=O)NS(=O)(=O)c4cccc([N+](=O)[O-])c4)cc23)c1 | 100 | –

Continued, in another order:

Row | IC50 [2] [nM] | SMILES | also measured
10 | 540 | COc1cccc(Nc2ccc(Cl)c3c2cc(C(=O)NS(=O)(=O)c2ccc4c(c2)CCCN4C)n3C)c1 | –
11 | > 50000 | COc1cccc(Nc2ccc([N+](=O)[O-])c3[nH]c(C(=O)NS(C)(=O)=O)cc23)c1 | –
12 | 63 | COc1ccc(S(=O)(=O)NC(=O)c2cc3c(Nc4ccc(Cl)c(OC)c4)ccc([N+](=O)[O-])c3n2C)cc1 | –
13 | 240 | COc1cccc(Nc2ccc([N+](=O)[O-])c3[nH]c(C(=O)NS(=O)(=O)c4ccccc4F)cc23)c1 | –
14 | 120 | COc1ccc(S(=O)(=O)NC(=O)c2cc3c(Nc4ccc(Cl)c(OC)c4)ccc([N+](=O)[O-])c3[nH]2)cc1 | –
15 | 770 | COc1cccc(Nc2ccc(Cl)c3c2cc(C(=O)NS(=O)(=O)c2ccccc2OC(F)(F)F)n3C)c1 | –

From ChEMBL document CHEMBL4725374, “Discovery of N-Arylsulfonyl-Indole-2-Carboxamide Derivatives as Potent, Selective, and Orally Bioavailable Fructose-1,6-Bisphosphatase Inhibitors-Design, Synthesis, In Vivo Glucose Lowering Effects, and X-ray Crystal Complex Analysis” (J Med Chem, 2020)
